Assay results published in patent publication US9365615B2, “Cross-linked peptides containing non-peptide cross-linked structure, method for synthesizing cross-linked peptides, and novel organic compound used in method” (JITSUBO Co., Ltd., priority 2013, dated 2016).
*1 amine or outer side, *2 acyl side, *3 side chain or, on linkers, in order; H or OH if unused. Where a SMILES comes first, the peptide text is derived from it. Bridges are numbered along the chain shown (N, C = ends). X1 = O=C(C[*:2])[*:1]

Legend:
chymotrypsin = target: T1, chymotrypsin (Bos taurus, UniProt P00766); test: Resistance to peptidase: decomposition by chymotrypsin (HPLC); type: in vitro ADME; settings: isolated chymotrypsin (SIGMA), pH 8; 4 U/ml enzyme in 0.1M Tris-HCl (pH8.0), 37° C., peptide 0.2 mg/ml; time at which half of the peptide was decomposed; read-out: half period by chymotrypsin (t1/2)
T1 construct: purchased SIGMA
Method: (§1) Resistance to a peptidase of a peptide of the present invention was investigated using a carboxy peptidase and chymotrypsin. Resistance to a peptidase was measured as described below.
Chymotrypsin purchased from SIGMA was treated with 0.1M Tris-HCl (pH8.0) to prepare an enzyme solution of 4 U/ml, which was then kept warm at 37° C. in a water bath. Then, a peptide solution treated with DMSO: pure water=1:1 to obtain a concentration of 5 mg/ml was treated with 0.1M Tris-HCl (pH8.0) to give a concentration of 1 mg/ml, and the enzyme solution and the peptide solution were mixed at 4:1 so as to give a peptide final concentration of 0.2 mg/ml. Thereafter, these were reacted quickly at 37° C. With time, the reaction solution was sampled each in an amount of 0.1 ml, and a reaction stopping solution (25% TFA in acetonitrile, 20 μL) was added to stop the reaction. Samples were analyzed by HPLC, and decomposition of a peptide by chymotrypsin was measured. Sampling was conducted at 0, 0.5 minutes, 1 minute and 2 minutes, and when decomposition of 50% or more was not obtained at 2 minutes, sampling was conducted further at 0.5 hours, 1 hour, 3 hours, and time at which half of the peptide added was decomposed was measured.

carboxy peptidase = test: Resistance to peptidase: decomposition by carboxy peptidase (HPLC); type: in vitro ADME; settings: isolated carboxy peptidase (SIGMA); 1 U/ml enzyme in PBS, 37° C., peptide 0.2 mg/ml; time at which half of the peptide was decomposed; read-out: half period by carboxy peptidase (t1/2)
Method: as §1
A carboxy peptidase purchased from SIGMA was treated with PBS to prepare an enzyme solution of 1 U/ml, which was then kept warm at 37° C. in a water bath. Then, a peptide solution having a concentration adjusted to 5 mg/ml with DMSO: pure water=1:1 mixed solvent was treated with PBS(−) to obtain a concentration of 1 mg/ml, and the enzyme solution and the peptide solution were mixed at 4:1 so as to give a peptide final concentration of 0.2 mg/ml. Thereafter, these were reacted quickly at 37° C. With time, the reaction solution was sampled each in an amount of 0.1 ml, and a reaction stopping solution (25% TFA in acetonitrile, 20 μL) was added to stop the reaction. Samples were analyzed by HPLC, and decomposition of a peptide by the peptidase was measured. Sampling was conducted at 0, 0.5 minutes, 1 minute and 2 minutes, and when decomposition of […] or more was not obtained at 2 minutes, sampling was conducted further at 0.5 hours, 1 hour, 3 hours, additionally, sometimes at 6 hours, and for peptides stable for a long period, sampling was conducted in a range of 24 hours to 168 hours according to demands. Time at which half of the peptide added was decomposed was measured.

Compound | half-life at 0.2 mg/ml (chymotrypsin) [min] | half-life at 0.2 mg/ml (carboxy peptidase) [min]
CCC(=O)N1CCCC[C@H](NC(=O)[C@@H](N)Cc2ccc(O)cc2)C(=O)N[C@@H](Cc2c[nH]c3ccccc23)C(=O)N[C@@H](CO)C(=O)N[C@@H](CCC(N)=O)C(=O)N[C@@H](Cc2ccc(O)cc2)C(=O)N[C@@H](CC(C)C)C(=O)N(CC(=O)N[C@@H](Cc2ccc(O)cc2)C(=O)O)CCCC1 [Bdev-27] | 4.37 | 15
CC(=O)N[C@@H](Cc1ccc(O)cc1)C(=O)N[C@H]1CCCCNCCCCN(CC(=O)N[C@@H](Cc2ccc(O)cc2)C(=O)O)C(=O)[C@H](CC(C)C)NC(=O)[C@H](Cc2ccc(O)cc2)NC(=O)[C@H](CCC(N)=O)NC(=O)[C@H](CO)NC(=O)[C@H](Cc2c[nH]c3ccccc23)NC1=O [Bdev6] | 2.09 | 2.47
CCCCC(=O)N1CCCC[C@H](NC(=O)[C@@H](N)Cc2ccc(O)cc2)C(=O)N[C@@H](Cc2c[nH]c3ccccc23)C(=O)N[C@@H](CO)C(=O)N[C@@H](CCC(N)=O)C(=O)N[C@@H](Cc2ccc(O)cc2)C(=O)N[C@@H](CC(C)C)C(=O)N(CC(=O)N[C@@H](Cc2ccc(O)cc2)C(=O)O)CCCC1 [Bdev-28] | 2.9 | 21.7
CC(=O)N1CCCC[C@@H](C(=O)N[C@@H](Cc2ccc(O)cc2)C(=O)O)NC(=O)[C@H](CC(C)C)NC(=O)[C@H](Cc2ccc(O)cc2)NC(=O)[C@H](CCC(N)=O)NC(=O)[C@H](CO)NC(=O)[C@H](Cc2c[nH]c3ccccc23)NC(=O)[C@@H](NC(=O)[C@@H](N)Cc2ccc(O)cc2)CCCC1 [Bdev-25] | 1.85 | 2.63
CC(=O)N1CCCCN(CC(=O)N[C@@H](Cc2ccc(O)cc2)C(=O)O)C(=O)[C@H](CC(C)C)NC(=O)[C@H](Cc2ccc(O)cc2)NC(=O)[C@H](CCC(N)=O)NC(=O)[C@H](CO)NC(=O)[C@H](Cc2c[nH]c3ccccc23)NC(=O)CN(C(=O)[C@@H](N)Cc2ccc(O)cc2)CCCC1 [Bdev-21] | 0.95 | 14.6
CC(=O)N1CCCC[C@H](NC(=O)[C@@H](N)Cc2ccc(O)cc2)C(=O)N[C@@H](Cc2c[nH]c3ccccc23)C(=O)N[C@@H](CO)C(=O)N[C@@H](CCC(N)=O)C(=O)N[C@@H](Cc2ccc(O)cc2)C(=O)N[C@@H](CC(C)C)C(=O)N(CC(=O)N[C@@H](Cc2ccc(O)cc2)C(=O)O)CCCC1 [Bdev2] | 1.4 | 18.7
COCCOCCOCCOCCC(=O)N1CCCC[C@H](NC(=O)[C@@H](N)Cc2ccc(O)cc2)C(=O)N[C@@H](Cc2c[nH]c3ccccc23)C(=O)N[C@@H](CO)C(=O)N[C@@H](CCC(N)=O)C(=O)N[C@@H](Cc2ccc(O)cc2)C(=O)N[C@@H](CC(C)C)C(=O)N(CC(=O)N[C@@H](Cc2ccc(O)cc2)C(=O)O)CCCC1 [Bdev-29] | 3.73 | 15.7
CC(C)C[C@@H]1NC(=O)[C@H](Cc2ccc(O)cc2)NC(=O)[C@H](CCC(N)=O)NC(=O)[C@H](CO)NC(=O)[C@H](Cc2c[nH]c3ccccc23)NC(=O)[C@@H](NC(=O)[C@@H](N)Cc2ccc(O)cc2)CCCCNCCCCN(CC(=O)N[C@@H](Cc2ccc(O)cc2)C(=O)O)C1=O [Bdev8] | 1.26 | 2.79
CC(=O)N[C@@H](Cc1ccc(O)cc1)C(=O)N[C@H]1CCCCN(C(C)=O)CCCCN(CC(=O)N[C@@H](Cc2ccc(O)cc2)C(=O)O)C(=O)[C@H](CC(C)C)NC(=O)[C@H](Cc2ccc(O)cc2)NC(=O)[C@H](CCC(N)=O)NC(=O)[C@H](CO)NC(=O)[C@H](Cc2c[nH]c3ccccc23)NC1=O [Bdev5] | 0.39 | 3.34
CC(C)C[C@@H]1NC(=O)[C@H](Cc2ccc(O)cc2)NC(=O)[C@H](CCC(N)=O)NC(=O)[C@H](CO)NC(=O)[C@H](Cc2c[nH]c3ccccc23)NC(=O)[C@@H](NC(=O)[C@@H](N)Cc2ccc(O)cc2)CSSC[C@@H](C(=O)N[C@@H](Cc2ccc(O)cc2)C(=O)O)NC1=O [STD, reference compound] | 0.4 | 0.45
CC(C)C[C@@H]1NC(=O)[C@H](Cc2ccc(O)cc2)NC(=O)[C@H](CCC(N)=O)NC(=O)[C@H](CO)NC(=O)[C@H](Cc2c[nH]c3ccccc23)NC(=O)[C@@H](NC(=O)[C@@H](N)Cc2ccc(O)cc2)CCCCNC(=O)CSC[C@@H](C(=O)N[C@@H](Cc2ccc(O)cc2)C(=O)O)NC1=O [Comp. 1, reference compound] (H-YKWSQYLCY-OH; linker 2-8 via X1) | 0.45 | 0.72
COCCOCCOCCOCCOCCOCCOCCOCCC(=O)N1CCCC[C@H](NC(=O)[C@@H](N)Cc2ccc(O)cc2)C(=O)N[C@@H](Cc2c[nH]c3ccccc23)C(=O)N[C@@H](CO)C(=O)N[C@@H](CCC(N)=O)C(=O)N[C@@H](Cc2ccc(O)cc2)C(=O)N[C@@H](CC(C)C)C(=O)N(CC(=O)N[C@@H](Cc2ccc(O)cc2)C(=O)O)CCCC1 [Bdev-30] | 3.66 | 19.2
